Activity calls are given as the source filed them. No cut-off for these calls is given here.
Experiments:
Integrin alpha-4/beta-1 [1] = biological target: T1, Integrin alpha-4/beta-1 (Homo sapiens, UniProt P05556+P13612); experiment: Binding affinity to human VLA4 alpha4beta1 in Jurkat cells; type: cell-based
Integrin alpha-4/beta-1 [2] = biological target: T1, Integrin alpha-4/beta-1; experiment: Displacement of [125I]VCAM-Ig from human VLA4 alpha-4-beta-1 in Jurkat cells at 100 uM; type: cell-based
[3] = Clearance in Sprague-Dawley rat plasma at 1 mg/kg, iv by cassette-dosing assay; type: ADME, organism-based; set-up: dose 1 mg/kg, route intravenous
[4] = Bioavailability in Sprague-Dawley rat at 2 mg/kg, po by cassette-dosing assay; type: ADME, organism-based; settings: in vivo
[5] = Half life in Sprague-Dawley rat plasma at 2 mg/kg, po by cassette-dosing assay; type: ADME, organism-based; set-up: dose 2 mg/kg, route oral
[6] = Half life in Sprague-Dawley rat plasma at 1 mg/kg, iv by cassette-dosing assay; type: ADME, organism-based; set-up: dose 1 mg/kg, route intravenous
Integrin alpha-4/beta-7 = biological target: T2, Integrin alpha-4/beta-7 (Homo sapiens, UniProt P13612+P26010); experiment: Binding affinity to human integrin alpha-4-beta-7 in Jurkat cells; type: cell-based
T2 sequence (P13612 whole entry): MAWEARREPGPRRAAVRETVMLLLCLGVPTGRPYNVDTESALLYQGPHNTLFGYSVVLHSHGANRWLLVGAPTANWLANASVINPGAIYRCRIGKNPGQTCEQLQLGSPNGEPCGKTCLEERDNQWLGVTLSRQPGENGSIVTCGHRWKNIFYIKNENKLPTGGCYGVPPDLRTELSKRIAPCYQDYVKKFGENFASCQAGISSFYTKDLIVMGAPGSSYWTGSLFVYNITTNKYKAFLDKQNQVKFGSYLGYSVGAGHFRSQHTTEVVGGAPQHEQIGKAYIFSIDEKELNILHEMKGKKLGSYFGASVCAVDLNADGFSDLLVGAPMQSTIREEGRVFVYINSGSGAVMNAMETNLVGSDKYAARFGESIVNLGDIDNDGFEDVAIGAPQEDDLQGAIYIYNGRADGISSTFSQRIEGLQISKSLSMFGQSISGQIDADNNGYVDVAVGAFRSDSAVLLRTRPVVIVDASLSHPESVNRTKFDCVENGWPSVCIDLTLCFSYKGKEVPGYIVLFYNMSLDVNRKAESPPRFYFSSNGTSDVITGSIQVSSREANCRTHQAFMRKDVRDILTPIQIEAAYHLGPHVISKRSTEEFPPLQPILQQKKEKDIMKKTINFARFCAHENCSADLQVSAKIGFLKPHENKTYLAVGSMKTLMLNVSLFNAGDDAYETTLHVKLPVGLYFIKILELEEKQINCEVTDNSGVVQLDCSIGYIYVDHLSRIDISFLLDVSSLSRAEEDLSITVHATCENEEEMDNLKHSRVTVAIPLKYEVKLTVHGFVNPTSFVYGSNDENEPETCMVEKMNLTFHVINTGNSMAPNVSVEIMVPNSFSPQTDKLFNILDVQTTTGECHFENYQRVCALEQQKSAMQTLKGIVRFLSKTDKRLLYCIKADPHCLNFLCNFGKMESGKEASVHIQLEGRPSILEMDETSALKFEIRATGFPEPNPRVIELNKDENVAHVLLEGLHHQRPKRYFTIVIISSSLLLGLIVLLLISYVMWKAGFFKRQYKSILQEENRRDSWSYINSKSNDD
T2 sequence (P26010 whole entry): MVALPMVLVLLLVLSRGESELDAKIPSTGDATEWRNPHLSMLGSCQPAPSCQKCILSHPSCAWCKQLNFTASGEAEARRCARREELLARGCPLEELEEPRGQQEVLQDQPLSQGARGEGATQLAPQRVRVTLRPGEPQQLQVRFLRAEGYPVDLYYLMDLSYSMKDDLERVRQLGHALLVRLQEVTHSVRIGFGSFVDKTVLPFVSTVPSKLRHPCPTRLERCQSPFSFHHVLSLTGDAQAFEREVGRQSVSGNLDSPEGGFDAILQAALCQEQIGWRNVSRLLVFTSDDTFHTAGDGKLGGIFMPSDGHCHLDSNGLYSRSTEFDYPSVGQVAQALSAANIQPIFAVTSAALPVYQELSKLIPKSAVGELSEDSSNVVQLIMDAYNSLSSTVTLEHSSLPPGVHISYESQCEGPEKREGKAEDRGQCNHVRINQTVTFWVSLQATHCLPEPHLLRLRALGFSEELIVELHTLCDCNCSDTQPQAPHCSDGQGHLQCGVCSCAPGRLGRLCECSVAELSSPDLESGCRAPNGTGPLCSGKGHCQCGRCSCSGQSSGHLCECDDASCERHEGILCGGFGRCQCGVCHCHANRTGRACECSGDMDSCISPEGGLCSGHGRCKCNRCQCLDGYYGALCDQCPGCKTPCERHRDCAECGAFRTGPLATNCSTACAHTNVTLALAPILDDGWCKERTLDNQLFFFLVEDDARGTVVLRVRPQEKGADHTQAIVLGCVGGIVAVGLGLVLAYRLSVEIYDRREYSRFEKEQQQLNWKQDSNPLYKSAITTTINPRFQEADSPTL

T1 sequence (P05556 whole entry, one chain of several): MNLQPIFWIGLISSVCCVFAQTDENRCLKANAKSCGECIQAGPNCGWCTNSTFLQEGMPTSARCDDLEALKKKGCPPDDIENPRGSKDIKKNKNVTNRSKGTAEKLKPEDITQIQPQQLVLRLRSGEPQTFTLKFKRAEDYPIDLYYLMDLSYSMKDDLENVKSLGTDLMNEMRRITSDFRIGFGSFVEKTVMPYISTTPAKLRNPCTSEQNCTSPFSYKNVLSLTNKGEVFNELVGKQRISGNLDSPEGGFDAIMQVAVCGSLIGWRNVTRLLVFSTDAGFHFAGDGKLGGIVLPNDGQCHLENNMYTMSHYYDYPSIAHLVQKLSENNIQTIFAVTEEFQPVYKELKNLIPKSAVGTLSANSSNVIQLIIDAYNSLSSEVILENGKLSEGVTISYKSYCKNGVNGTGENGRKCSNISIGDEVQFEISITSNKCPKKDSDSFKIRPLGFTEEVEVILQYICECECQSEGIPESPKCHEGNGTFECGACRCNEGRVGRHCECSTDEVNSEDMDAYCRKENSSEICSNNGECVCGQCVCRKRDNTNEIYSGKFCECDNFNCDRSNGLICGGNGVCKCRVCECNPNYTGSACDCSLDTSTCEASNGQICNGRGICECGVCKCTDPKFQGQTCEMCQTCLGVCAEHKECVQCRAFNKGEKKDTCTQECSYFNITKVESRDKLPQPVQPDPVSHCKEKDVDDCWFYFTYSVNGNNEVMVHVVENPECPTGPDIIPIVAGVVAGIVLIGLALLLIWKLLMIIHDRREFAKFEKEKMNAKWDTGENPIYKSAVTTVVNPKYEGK

| Structure (SMILES) | IC50 (Integrin alpha-4/beta-1 [1]) [nM] | further results |
| --- | --- | --- |
| O=C(O)[C@H]1C2CCC(O2)[C@@H]1NC(=O)[C@@H]1CCCN1S(=O)(=O)c1cc(Cl)cc(Cl)c1 (stereo partly drawn) | 25600 | – |
| O=C(O)C1C2C=CC(C2)[C@@H]1NC(=O)[C@@H]1CCCN1S(=O)(=O)c1cc(Cl)cc(Cl)c1 (stereo partly drawn) [listing 1 of 2 here] | 657 | – |
| O=C(O)C1C2C=CC(C2)[C@@H]1NC(=O)[C@@H]1CCCN1S(=O)(=O)c1cc(Cl)cc(Cl)c1 (stereo partly drawn) [listing 2 of 2 here] | 2160 | – |
| O=C(CN(C1CCCCC1)S(=O)(=O)c1cc(Cl)cc(Cl)c1)NC1CCCCC1C(=O)O (stereo not drawn) | – | Activity (Integrin alpha-4/beta-1 [2]): inactive |
| O=C(O)[C@H]1CCCC[C@@H]1NC(=O)[C@@H]1CCCN1S(=O)(=O)c1cc(Cl)cc(Cl)c1 | 525 | – |
| O=C(O)[C@H]1CCCC[C@H]1NC(=O)[C@@H]1CCCN1S(=O)(=O)c1cc(Cl)cc(Cl)c1 | 9460 | – |
| O=C(O)[C@@H]1C2CCC(C2)[C@@H]1NC(=O)[C@@H]1CCCN1S(=O)(=O)c1cc(Cl)cc(Cl)c1 (stereo partly drawn) | 1600 | – |
| O=C(O)c1ccccc1NC(=O)[C@@H]1CCCN1S(=O)(=O)c1cc(Cl)cc(Cl)c1 | – | Activity (Integrin alpha-4/beta-1 [2]): 0% |
| O=C(O)Cc1cccc(NC(=O)[C@@H]2CCCN2S(=O)(=O)c2cc(Cl)cc(Cl)c2)c1 | – | Activity (Integrin alpha-4/beta-1 [2]): 43% |
| O=C(O)c1cccc(NC(=O)[C@@H]2CCCN2S(=O)(=O)c2cc(Cl)cc(Cl)c2)c1 | – | Activity (Integrin alpha-4/beta-1 [2]): 2% |
| O=C(O)C1C2CCC(C2)[C@@H]1NC(=O)[C@@H]1CCCN1S(=O)(=O)c1cc(Cl)cc(Cl)c1 (stereo partly drawn) [listing 1 of 2 here] | 322 | – |
| O=C(O)C1C2CCC(C2)[C@@H]1NC(=O)[C@@H]1CCCN1S(=O)(=O)c1cc(Cl)cc(Cl)c1 (stereo partly drawn) [listing 2 of 2 here] | 95 | – |
| CC(C)[C@@H](C(=O)NC1CCCCC1C(=O)O)N(C)S(=O)(=O)c1cc(Cl)cc(Cl)c1 (stereo partly drawn) | 462 | – |
| O=C(O)[C@H]1C2CCC(C2)[C@@H]1NC(=O)[C@@H]1CCCN1S(=O)(=O)c1cc(Cl)cc(Cl)c1 (stereo partly drawn) | 54 | clearance [3]: 3.3 mL/min/kg; bioavailability [4]: 49%; half-life [5]: 1.7 h; half-life [6]: 1.9 h; IC50 (Integrin alpha-4/beta-7): 13000 nM |
| O=C(O)[C@H]1C2CCC(CC2)[C@@H]1NC(=O)[C@@H]1CCCN1S(=O)(=O)c1cc(Cl)cc(Cl)c1 | 2740 | – |
| O=C(O)Cc1ccccc1NC(=O)[C@@H]1CCCN1S(=O)(=O)c1cc(Cl)cc(Cl)c1 | – | Activity (Integrin alpha-4/beta-1 [2]): 11% |
| O=C(O)C1C2CCC(C2)[C@H]1NC(=O)[C@@H]1CCCN1S(=O)(=O)c1cc(Cl)cc(Cl)c1 (stereo partly drawn) [listing 1 of 2 here] | 299 | – |
| O=C(O)C1C2CCC(C2)[C@H]1NC(=O)[C@@H]1CCCN1S(=O)(=O)c1cc(Cl)cc(Cl)c1 (stereo partly drawn) [listing 2 of 2 here] | 1490 | – |

— ChEMBL document CHEMBL1146302, “Highly constrained bicyclic VLA-4 antagonists” (Bioorg Med Chem Lett, 2007)
